Measured values taken from EP0547508A1, “Use of xanthine derivatives for the stabilisation of the auto-regulation of cerebral blood flow” (priority 1991, dated 1993).

System: Ratten
Assay: Cerebral autoregulation in rats under adrenaline-induced acute hypertension, with or without carotid occlusion (ischaemia/reperfusion)
Type: in vivo
Excerpt: Es werden 36 Ratten unterteilt in drei Gruppen operiert. Die erste Gruppe dient als Kontrolle, d.h. es wird eine akute Hypertonie erzeugt, ohne daß die Carotiden abgeklemmt werden. Die zweite Gruppe wird während der Ischämie und die dritte Gruppe während der Reperfusion mit Adrenalin stimuliert. In jeder Gruppe werden jeweils 6 Tiere mit der Verbindung 1 als Dauerinfusion behandelt.
Bei einem mittleren arteriellen Druck von 170 mmHg wird in der Kontrollgruppe die cerebrale Autoregulation durchbrochen (entsprechend 3 µg/kg Adrenalin (Firma Sigma)). Die dreifache Dosis führt bei einem Blutdruck von 200 mmHg zum Tod der Tiere. Im Gegensatz dazu ist in der mit Verbindung 1 behandelten Gruppe die dreifache Konzentration und ein mittlerer Druck von 180 mmHg erforderlich um an die Grenze der Autoregulation zu kommen. Der Verschluß beider Carotiden führt bei den Tieren, die mit Verbindung 1 behandelt wurden, zu einer höheren Restdurchblutung (25 %) als bei den Kontrolltieren. Während der Reperfusion bleibt die Gehirndurchblutung in der Kontrollgruppe auf dem niedrigen Niveau von 23 %. Die Autoregulation wird bereits bei 150 mmHg durchbrochen (entsprechend 3 µg/kg/Adrenalin). […] Erst bei 180 mmHg kommt es zum Durchbruch der Autoregulation.
Alle Kontrolltiere verstarben nach einer Dosis von 10 µg/kg Adrenalin. Die letale Dosis für mit Verbindung 1 behandelte Tiere liegt bei 30 µg/kg Adrenalin. Zusammenfassend läßt sich feststellen, daß die mit Verbindung 1 behandelten Tiere - im Vergleich mit den Kontrolltieren - höhere Blutdruckspitzen und Blutdruckabsenkungen tolerieren und deren Gehirndurchblutungsautoregulation erst bei der 3-fachen Adrenalinkonzentration durchbrochen wird.

CCCn1cnc2c1c(=O)n(CCCCC(C)=O)c(=O)n2C [Verbindung 1, 1-(5-Oxohexyl)-3-methyl-7-n-propyl-xanthin]
mittlerer Druck erforderlich um an die Grenze der Autoregulation zu kommen (acute hypertension by Adrenalin, carotids not clamped, Verbindung 1 as continuous infusion, control group 170 mmHg): 180 mmHg | Adrenalin-Konzentration erforderlich um an die Grenze der Autoregulation zu kommen (acute hypertension, carotids not clamped, relative to control group (3 µg/kg Adrenalin)): dreifache | Durchbruch der Autoregulation (during reperfusion, Adrenalin stimulation, control group 150 mmHg): 180 mmHg | Restdurchblutung (occlusion of both carotids (ischaemia), higher than in control animals): 25% | Gehirndurchblutung während der Reperfusion (reperfusion after carotid occlusion, control group stays at 23 %): erreichen sofort wieder das präischämische Ausgangsniveau | Adrenalinkonzentration bei der die Gehirndurchblutungsautoregulation durchbrochen wird (summary, fold compared with control animals): 3
